Target: T1, Rat Hepatic V1 Receptors (Rattus norvegicus, UniProt P30560)
T1 construct: Rat liver plasma membranes expressing the vasopressin V1 receptor subtypes; from tissue; host or cells: rat liver plasma membranes (sucrose density gradient)
Test: Binding Assay to Rat Hepatic V1 Receptors
Settings: rat hepatic V1 (no asterisk)
Procedure: Binding Assay to Rat Hepatic V1 Receptors
Rat liver plasma membranes expressing the vasopressin V1 receptor subtypes are isolated by sucrose density gradient according to the method described by Lesko et al., (1973). These membranes are quickly suspended in 50.0 mM Tris.HCl buffer, pH 7.4, containing 0.2% bovine serum albumin (BSA) and 0.1 mM phenylmethylsulfonylfluoride (PMSF) and kept frozen at -70° C. until used in subsequent binding experiments. […]
For test compounds, these are solubilized in 50% dimethylsulfoxide (DMSO) and added in 20.0 μl volume to a final incubation volume of 200 μl. […] The radioactivity trapped on the filter disk by the ligand-receptor complex is assessed by liquid scintillation counting in a Packard LS Counter, with an efficiency of 65% for tritium. The data are analyzed for IC50 values by the LUNDON-2 program for competition (LUNDON SOFTWARE, Ohio).

T1 sequence (P30560 whole entry): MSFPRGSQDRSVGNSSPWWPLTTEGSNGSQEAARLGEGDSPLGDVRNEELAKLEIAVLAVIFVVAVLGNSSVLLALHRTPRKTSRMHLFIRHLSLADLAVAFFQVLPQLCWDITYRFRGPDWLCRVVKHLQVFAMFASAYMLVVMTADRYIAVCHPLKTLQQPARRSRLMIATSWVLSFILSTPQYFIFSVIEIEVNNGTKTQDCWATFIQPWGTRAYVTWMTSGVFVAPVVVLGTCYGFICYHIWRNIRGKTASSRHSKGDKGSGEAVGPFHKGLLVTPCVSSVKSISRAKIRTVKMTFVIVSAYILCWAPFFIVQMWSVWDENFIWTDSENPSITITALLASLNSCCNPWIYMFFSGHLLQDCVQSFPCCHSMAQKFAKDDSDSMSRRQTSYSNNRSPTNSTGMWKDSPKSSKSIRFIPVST

## O=C(c1ccc(-c2ccccc2C(F)(F)F)cc1)N1Cc2cccn2Cc2ccccc21 [Example 8]
  IC50: 670 nM

## O=C(c1ccc(-c2ccccn2)cc1)N1Cc2cccn2Cc2ccccc21 [Example 9, 10,11-Dihydro-10-[4-(2-pyridinyl)benzoyl]-5H-pyrrolo[2,1-c][1,4]benzodiazepine]
  IC50: 400 nM
